Target: T1, PRMT5 (protein arginine methyl transferase 5) (Homo sapiens, UniProt O14744)
T1 construct: human recombinant PRMT5/MEP50 complex; with MEP50
Assay: scintillation proximity radiometric methyltransferase assay (3H-SAM, histone H4 peptide); jump dilution
Type: biochemical

T1 sequence (O14744 2-637): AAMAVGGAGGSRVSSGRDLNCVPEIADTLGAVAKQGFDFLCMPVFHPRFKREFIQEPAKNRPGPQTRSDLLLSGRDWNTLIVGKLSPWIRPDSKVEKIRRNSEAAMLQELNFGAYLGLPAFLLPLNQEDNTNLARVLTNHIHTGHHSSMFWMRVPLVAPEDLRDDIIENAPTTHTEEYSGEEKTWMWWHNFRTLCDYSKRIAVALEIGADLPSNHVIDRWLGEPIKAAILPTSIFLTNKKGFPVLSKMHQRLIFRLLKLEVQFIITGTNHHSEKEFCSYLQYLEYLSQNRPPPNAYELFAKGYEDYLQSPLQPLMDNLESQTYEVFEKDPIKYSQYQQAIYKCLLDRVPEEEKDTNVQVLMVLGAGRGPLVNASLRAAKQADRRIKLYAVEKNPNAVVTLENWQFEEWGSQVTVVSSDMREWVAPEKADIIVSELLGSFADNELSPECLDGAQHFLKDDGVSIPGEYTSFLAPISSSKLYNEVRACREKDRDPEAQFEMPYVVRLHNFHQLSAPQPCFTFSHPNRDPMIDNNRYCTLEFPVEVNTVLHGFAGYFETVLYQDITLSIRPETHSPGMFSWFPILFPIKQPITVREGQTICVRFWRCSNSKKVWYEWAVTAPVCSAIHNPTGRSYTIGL
T1 sequence (Q9BQA1 whole entry partner): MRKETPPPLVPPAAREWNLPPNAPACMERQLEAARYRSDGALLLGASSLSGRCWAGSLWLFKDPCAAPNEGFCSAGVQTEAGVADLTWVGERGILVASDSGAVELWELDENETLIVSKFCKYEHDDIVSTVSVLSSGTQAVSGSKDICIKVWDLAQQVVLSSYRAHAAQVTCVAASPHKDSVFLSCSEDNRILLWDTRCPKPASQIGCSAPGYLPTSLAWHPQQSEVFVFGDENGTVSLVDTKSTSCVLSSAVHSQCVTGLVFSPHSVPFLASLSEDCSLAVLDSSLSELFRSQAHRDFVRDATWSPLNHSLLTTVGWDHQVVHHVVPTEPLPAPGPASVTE

IC50: 10.8 nM
Substance: PRT543
